Source: ChEMBL document CHEMBL2331209, “Mechanistic studies of the inactivation of tyrosinase by resorcinol” (Bioorg Med Chem, 2013)

Assays:
[1] = target: T1, Tyrosinase (Homo sapiens) (UniProt P14679); experiment: Inactivation of tyrosinase (unknown origin) assessed as total oxygen uptake using 4-methylcatechol substrate at 850 uM by spectrophotometry
T1 sequence (whole entry): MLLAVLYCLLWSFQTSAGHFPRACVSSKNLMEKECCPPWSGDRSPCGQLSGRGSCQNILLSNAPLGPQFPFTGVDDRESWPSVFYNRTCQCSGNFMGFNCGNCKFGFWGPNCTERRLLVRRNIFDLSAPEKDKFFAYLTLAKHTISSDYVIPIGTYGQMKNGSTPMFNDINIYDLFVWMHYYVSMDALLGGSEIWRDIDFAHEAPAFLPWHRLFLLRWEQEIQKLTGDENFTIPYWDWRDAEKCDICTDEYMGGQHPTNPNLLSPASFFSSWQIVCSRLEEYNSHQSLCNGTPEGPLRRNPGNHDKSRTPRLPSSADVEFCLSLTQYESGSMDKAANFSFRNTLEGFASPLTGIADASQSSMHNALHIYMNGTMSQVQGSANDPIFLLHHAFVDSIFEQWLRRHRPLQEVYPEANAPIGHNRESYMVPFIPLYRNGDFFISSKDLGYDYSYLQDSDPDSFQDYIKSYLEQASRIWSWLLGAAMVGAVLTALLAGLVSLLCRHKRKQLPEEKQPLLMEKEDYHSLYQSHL

[2] = target: T1, Tyrosinase (Homo sapiens); experiment: Inactivation of tyrosinase (unknown origin) assessed as initial rate of oxygen utilization using 4-methylcatechol substrate at 850 uM by spectrophotometry
[3] = target: T1, Tyrosinase (Homo sapiens); experiment: Inactivation of tyrosinase (unknown origin) assessed as decay half-life using 4-methylcatechol substrate at 850 uM by spectrophotometry
[4] = target: T1, Tyrosinase (Homo sapiens); experiment: Inactivation of tyrosinase (unknown origin) assessed as initial rate of oxygen utilization at absorbance 400 nm using 4-methylcatechol substrate at 850 uM by spectrophotometry
[5] = target: T1, Tyrosinase (Homo sapiens); experiment: Inactivation of tyrosinase (unknown origin) assessed as decay half-life using 4-methylcatechol substrate at 850 uM equimolar concentrations resorcinol by spectrophotometry
[6] = target: T1, Tyrosinase (Homo sapiens); experiment: Inactivation of tyrosinase (unknown origin) assessed as initial rate of oxygen utilization using 4-methylcatechol substrate at 850 uM equimolar concentrations resorcinol by spectrophotometry
[7] = target: T1, Tyrosinase (Homo sapiens); experiment: Inactivation of tyrosinase (unknown origin) assessed as total oxygen uptake using 4-methylcatechol substrate at 850 uM equimolar concentrations resorcinol by spectrophotometry
[8] = target: T1, Tyrosinase (Homo sapiens); experiment: Inactivation of tyrosinase (unknown origin) assessed as initial rate of oxygen utilization at absorbance 400 nm using 4-methylcatechol substrate at 850 uM equimolar concentrations resorcinol by spectrophotometry

SMILES: Oc1cccc(O)c1
- Activity [1]: 37%
- Activity [2]: 32%
- Activity [3]: 75%
- Activity [4]: 26%

SMILES: Oc1c(Cl)cc(Cl)c(O)c1Cl
- Decay half-life [5]: 73%
- Activity [6]: 110%
- Activity [7]: 86%
- Activity [8]: 105%

SMILES: Oc1ccc(F)c(O)c1F
- Decay half-life [5]: 48%
- Activity [6]: 18%
- Activity [7]: 30%
- Activity [8]: 28%

SMILES: Oc1ccc(F)c(O)c1
- Activity [6]: 6%
- Activity [7]: 0%
- Activity [8]: 10%

SMILES: Oc1cccc(O)c1Cl
- Decay half-life [5]: 72%
- Activity [6]: 60%
- Activity [7]: 69%
- Activity [8]: 79%

SMILES: COc1cc(O)cc(O)c1
- Decay half-life [5]: 22%
- Activity [6]: 64%
- Activity [7]: 26%
- Activity [8]: 62%

SMILES: Cc1cc(O)cc(O)c1
- Decay half-life [5]: 31%
- Activity [6]: 63%
- Activity [7]: 28%
- Activity [8]: 46%

SMILES: Oc1cc(O)cc(F)c1
- Decay half-life [5]: 122%
- Activity [6]: 67%
- Activity [7]: 52%
- Activity [8]: 46%

SMILES: Oc1cc(O)c(F)cc1F
- Decay half-life [5]: 83%
- Activity [6]: 30%
- Activity [7]: 29%
- Activity [8]: 30%

SMILES: Cc1c(O)cccc1O
- Decay half-life [5]: 82%
- Activity [6]: 105%
- Activity [7]: 90%
- Activity [8]: 103%

SMILES: Oc1cc(O)c(Cl)cc1Cl
- Decay half-life [5]: 160%
- Activity [6]: 29%
- Activity [7]: 33%
- Activity [8]: 22%

SMILES: Oc1cccc(O)c1O
- Activity [6]: 100%
- Activity [7]: 100%
- Activity [8]: 100%

SMILES: Cc1cc(C)c(O)cc1O
- Decay half-life [5]: 193%
- Activity [6]: 46%
- Activity [7]: 69%
- Activity [8]: 57%

SMILES: Oc1c(F)c(O)c(F)c(F)c1F
- Decay half-life [5]: 97%
- Activity [6]: 91%
- Activity [7]: 75%
- Activity [8]: 86%

SMILES: CCc1ccc(O)cc1O
- Activity [6]: 1%
- Activity [7]: 0%
- Activity [8]: < 1%

SMILES: Oc1cccc(O)c1F
- Decay half-life [5]: 68%
- Activity [6]: 33%
- Activity [7]: 35%
- Activity [8]: 40%

SMILES: Cc1cc(O)c(C)c(O)c1
- Decay half-life [5]: 82%
- Activity [6]: 97%
- Activity [7]: 117%
- Activity [8]: 103%

SMILES: Oc1cc(O)cc(O)c1
- Decay half-life [5]: 81%
- Activity [6]: 95%
- Activity [7]: 75%
- Activity [8]: 133%

SMILES: Oc1cc(F)cc(O)c1F
- Decay half-life [5]: 74%
- Activity [6]: 41%
- Activity [7]: 31%
- Activity [8]: 51%
